Results on 14 compounds are retold here after patent publication US4900727A, “4H-1-benzopyran-4-one compounds which have anti-inflamatory or immunodulating action” (Hoechst Aktiengesellschaft, priority 1986, dated 1990).

In assay [1] the test system is reverse passive Arthus reaction (RPA) in rats. Nature of the assay: Reverse passive Arthus reaction (RPA) in rats. It is filed as in vivo, Charles Foster rats of both sexes. To be noted: one hour before RPA, edema vs untreated control; for % inhibition: hydrochloride. Here is the method:
Charles Foster rats of both sexes, weighing 150-180 g, were sorted into groups of six animals each. 24 hours before the initiation of the RPA, the rats were shaved from the mid-dorsal region and fasted overnight. The test compounds were administered orally one hour before inducing the Arthus reaction. The RPA reaction was induced by intradermal injection of 0.1 ml of appropriately diluted rabbit anti-BSA serum. Immediately after the intradermal exposure, each rat received 0.5 ml of 0.4% bovine serum albumin intraveneously. Four hours after the intradermal challenge, each group of animals was killed by cervical dislocation. The full thickness of the skin was removed from the back of each animal, and a 12 mm diameter disk was punched out with a metal punch from the site of the antiserum injection. The wet weight of each skin site was determined as soon as possible. The edema caused by the RPA was measured as the difference (expressed in mg) between the wet weight of the site injected with antibody and that injected with normal rabbit serum. The results are expressed as the percentage inhibition or potentiation of the edema by the compound as compared with the edema induced in the untreated control animals.

Assay [2] relates to carrageenin-induced paw edema in rats. Nature of the assay: Systemic anti-inflammatory action on carrageenin-induced paw edema in rats. The class given is in vivo, male Charles Foster rats. To be noted: decrease in paw volume, 3 and 6 hours after carrageenin, from dose/response curve. The protocol:
Male Charles Foster rats (120-150 g) were fasted for 18 hours, with water ad libitum. The test compound dissolved in distilled water was administered orally. The control group received distilled water. 0/05 ml of 0.5% carrageenin suspension was injected subcutaneously into the plantar region of the left hind paw. Using a Maclab differential volume meter, the paw volume was determined before the carrageenin injection and 3 and 6 hours after the injection. The percentage decrease in paw volume was calculated by the following equation: [formula] The ED50 value was calculated from the dose/response curve. Six animals were used for each group. The results with representative compounds according to the invention and their salts are listed in Table 4, the substituents relating to the following formula Ia: [drawing 11]

The mark [3] stands for this setting: Rattus norvegicus, po, 4 h, dose 1.25 mg/kg p.o.
Setting [4] is: Rattus norvegicus, po, 4 h, dose 2.5 mg/kg p.o.
Where [5] appears, read: Rattus norvegicus, po, 4 h, dose 5.0 mg/kg p.o.
Where [6] appears, read: Rattus norvegicus, po, 4 h, dose 10.0 mg/kg p.o.
The mark [7] stands for this setting: Rattus norvegicus, po, 4 h, dose 20.0 mg/kg p.o.
The mark [8] stands for this setting: Rattus norvegicus, po, read-out: ED50.

Where a name gives a salt, the structure may show the parent alone. Read-outs that look alike come from different tables or passages of the source.

For orientation: inhibition in vivo means the drop in the measured response relative to a control, in per cent. The ED50 is the dose that gives a 50% effect, or the effect in half of the subjects. With `CCc1cc(=O)c2c(O)cc(O)c(C3CCN(C)CC3O)c2o1` (mixture of isomers) [(±) C2 H5 H CH3 HCl.1.5 H2 O, cis-5,7-Dihydroxy-2-ethyl-8-[4'-(3'-hydroxy-1'-methyl)-piperidinyl]-4H-1-benzopyran-4-one hydrochloride], in assay [1] (setting [3]), the inhibition in vivo at 1.25 mg/kg is 16%. Moreover, the inhibition in vivo at 2.5 mg/kg in assay [1] (setting [4]) was 34.3%. Further, in assay [1] (setting [5]), the inhibition in vivo at 5 mg/kg stood at 41.6%. Also, in assay [1] (setting [6]), the inhibition in vivo at 10 mg/kg was determined as 43.6%. Further, the inhibition in vivo at 20 mg/kg in assay [1] (setting [7]) is 77.1%. In addition, the median effective dose (ED50) in assay [2] (setting [8]) stood at 10.5 mg/kg.
With `CCCc1cc(=O)c2c(O)cc(O)c(C3CCN(C)CC3O)c2o1` (mixture of isomers) [(±) n-C3 H7 H CH3 HCl.H2 O, cis-5,7-Dihydroxy-2-n-propyl-8-[4'-(3'-hydroxy-1'-methyl)-piperidinyl]-4H-1-benzopyran-4-one hydrochloride], the inhibition in vivo at 1.25 mg/kg in assay [1] (setting [3]) turned out to be 26%. Moreover, the inhibition in vivo at 2.5 mg/kg in assay [1] (setting [4]) is 32%. The inhibition in vivo at 5 mg/kg in assay [1] (setting [5]) is 44%. The inhibition in vivo at 10 mg/kg in assay [1] (setting [6]) amounted to 55%. In addition, the inhibition in vivo at 20 mg/kg in assay [1] (setting [7]) amounted to 65%. Besides, the ED50 in assay [2] (setting [8]) is 6.8 mg/kg.
Turning to `CN1CC[C@H](c2c(O)cc(O)c3c(=O)cc(-c4ccc(N)cc4)oc23)[C@H](O)C1` (racemic) [(±) 4-Aminophenyl H H 2HCl, 2 H2 O, cis-(±)-2-(4-aminophenyl)-5,7-dihydroxy-8-[4'-(3'-hydroxy-1'-methyl)-piperidinyl]-4H-1-benzopyran-4-one], in assay [2] (p.o.), the ED50 amounted to 7.4 mg/kg.
Compound `CN1CC[C@H](c2c(O)cc(O)c3c(=O)cc(-c4ccc(Cl)cc4)oc23)[C@H](O)C1` (racemic) [(±) 4-chlorophenyl H H HCl, 1.5 H2 O, cis-(±)-2-(4-chlorophenyl)-5,7-dihydroxy-8-[4'-(3'-hydroxy-1'-methyl)-piperidinyl]-4H-1-benzopyran-4-one] yielded an ED50 in assay [2] (p.o.) of 7.0 mg/kg.
In the case of `CN1CC[C@H](c2c(O)cc(O)c3c(=O)cc(-c4ccccn4)oc23)[C@H](O)C1` (relative stereo) [(±) 2-Pyridyl H CH3 HCl.1.5 H2 O, cis-(±)-5,7-dihydroxy-2-(2-pyridyl)-8-[4'-(3'-hydroxy-1'-methyl)-piperidinyl]-4H-1-benzopyran-4-one], the inhibition in vivo at 1.25 mg/kg in assay [1] (setting [3]) was 0%. Further, the inhibition in vivo at 2.5 mg/kg in assay [1] (setting [4]) stood at 12%. Besides, the inhibition in vivo at 5 mg/kg in assay [1] (setting [5]) was 43%. In addition, in assay [1] (setting [6]), the inhibition in vivo at 10 mg/kg was determined as 90%. For the same compound, the inhibition in vivo at 20 mg/kg in assay [1] (setting [7]) was 90%. Also, the ED50 in assay [2] (setting [8]) came to 5.7 mg/kg.
For the compound `Cc1cc(=O)c2c(O)cc(O)c([C@H]3CCN(C)C[C@H]3O)c2o1` (relative stereo) [(±) CH3 H CH3 HCl, cis-5,7-Dihydroxy-2-methyl-8-[4'-(3'-hydroxy-1'-methyl)-piperidinyl]-4H-1-benzopyran-4-one hydrochloride], in assay [1] (setting [3]), the inhibition in vivo at 1.25 mg/kg stood at 28.8%. The inhibition in vivo at 2.5 mg/kg in assay [1] (setting [4]) is 31.8%. For the same compound, the inhibition in vivo at 5 mg/kg in assay [1] (setting [5]) is 29.8%. Besides, in assay [1] (setting [6]), the inhibition in vivo at 10 mg/kg was 35.8%. For the same compound, the inhibition in vivo at 20 mg/kg in assay [1] (setting [7]) is 39.2%. The 50% effective dose (ED50) in assay [2] (setting [8]) turned out to be 12.5 mg/kg.
Take `CN1CC[C@H](c2c(O)cc(O)c3c(=O)cc(-c4ccccc4)oc23)[C@H](O)C1` (relative stereo) [(±) Phenyl H CH3 HCl.2H2 O, cis-(±)-5,7-dihydroxy-2-phenyl-8-[4'-(3'-hydroxy-1'-methyl)-piperidinyl]-4H-1-benzopyran-4-one]: the inhibition in vivo at 1.25 mg/kg in assay [1] (setting [3]) is 57.5%. In addition, the inhibition in vivo at 2.5 mg/kg in assay [1] (setting [4]) was determined as 55.6%. Further, the inhibition in vivo at 5 mg/kg in assay [1] (setting [5]) was 68.1%. In assay [1] (setting [6]), the inhibition in vivo at 10 mg/kg amounted to 90.6%. Also, the inhibition in vivo at 20 mg/kg in assay [1] (setting [7]) worked out at 95.7%. In addition, the ED50 in assay [2] (setting [8]) was found to be 5.7 mg/kg.
On to `CN1CC[C@H](c2c(O)cc(O)c3c(=O)cc(-c4ccccc4Cl)oc23)[C@H](O)C1` (relative stereo) [(±) o-Chlorophenyl H CH3 HCl.H2 O, cis-(±)-2-(2-chlorophenyl)-5,7-dihydroxy-8-[4'-3'-hydroxy-1'-methyl)-piperidinyl]-4H-benzopyran-4-one], for which the inhibition in vivo at 1 mg/kg in assay [1] (Rattus norvegicus, po, 4 h, dose 1.0 mg/kg p.o.) came to 37%. Besides, the inhibition in vivo at 2 mg/kg in assay [1] (Rattus norvegicus, po, 4 h, dose 2.0 mg/kg p.o.) was determined as 60%. The inhibition in vivo at 4 mg/kg in assay [1] (Rattus norvegicus, po, 4 h, dose 4.0 mg/kg p.o.) came out at 80%. Moreover, in assay [2] (setting [8]), the median effective dose (ED50) is 2.7 mg/kg.
On to `CN1CC[C@H](c2c(O)cc(O)c3c(=O)cc(-c4ccccc4F)oc23)[C@H](O)C1` (relative stereo) [(±) o-Fluorophenyl H CH3 HCl.2H2 O, cis-(±)-5,7-dihydroxyl-2-(2-fluorophenyl)-8-[4'-(3'-hydroxy-1'-methyl)-piperidinyl]-4H-1-benzopyran-4-one], for which, in assay [1] (setting [3]), the inhibition in vivo at 1.25 mg/kg came to 0%. Also, the inhibition in vivo at 2.5 mg/kg in assay [1] (setting [4]) stood at 11.5%. The inhibition in vivo at 5 mg/kg in assay [1] (setting [5]) was 52.7%. For the same compound, in assay [2] (setting [8]), the ED50 came to 7.6 mg/kg.
As for `CN1CC[C@H](c2c(O)cc(O)c3c(=O)cc(-c4ccc(F)cc4)oc23)[C@H](O)C1` (relative stereo) [(±) p-Fluorophenyl H CH3 HCl.H2 O, cis-(±)-5,7-dihydroxy-2-(4-fluorophenyl)-8-[4'-(3'-hydroxy-1'-methyl)-piperidinyl]-4H-1-benzopyran-4-one], the inhibition in vivo at 1.25 mg/kg in assay [1] (setting [3]) was determined as 24.4%. Besides, the inhibition in vivo at 2.5 mg/kg in assay [1] (setting [4]) is 37.4%. Also, in assay [1] (setting [5]), the inhibition in vivo at 5 mg/kg came to 61.5%. Moreover, in assay [1] (setting [6]), the inhibition in vivo at 10 mg/kg turned out to be 90%. For the same compound, in assay [1] (setting [7]), the inhibition in vivo at 20 mg/kg worked out at 86.2%. For the same compound, the ED50 in assay [2] (setting [8]) stood at 7.4 mg/kg.
In the case of `CN1CC[C@H](c2c(O)cc(O)c3c(=O)cc(-c4ccc(Cl)cc4Cl)oc23)[C@H](O)C1` (relative stereo) [cis-(±)-2-(2,4-dichlorophenyl)-5,7-dihydroxy-8-[4'-(3'-hydroxy-1'-methyl)-piperidinyl]-4H-1-benzopyran-4-one], the inhibition in vivo at 1.25 mg/kg in assay [1] (setting [3]) came out at 0%. Also, the inhibition in vivo at 2.5 mg/kg in assay [1] (setting [4]) was 41.7%. Further, in assay [1] (setting [5]), the inhibition in vivo at 5 mg/kg is 57.2%. In assay [1] (setting [6]), the inhibition in vivo at 10 mg/kg worked out at 49.5%. Moreover, the inhibition in vivo at 20 mg/kg in assay [1] (setting [7]) was 76.1%. The ED50 in assay [2] (setting [8]) stood at 5.7 mg/kg.
The term % inhibition denotes how much of the control response was suppressed. On to `Cc1cc(=O)c2c(O)cc(O)c([C@H]3CCN(C)C[C@H]3O)c2o1` (single isomer, unassigned) [(+) CH3 H CH3 HCl, (+)-cis-5,7-Dihydroxy-2-methyl-8-[4'-(3'-hydroxy-1'-methyl)-piperidinyl]-4H-1-benzopyran-4-one hydrochloride], for which the inhibition in vivo at 1.25 mg/kg in assay [1] (setting [3]) came out at 40.5%. Moreover, the inhibition in vivo at 2.5 mg/kg in assay [1] (setting [4]) turned out to be 48.8%. For the same compound, in assay [1] (setting [5]), the inhibition in vivo at 5 mg/kg stood at 57.1%. In assay [1] (setting [6]), the inhibition in vivo at 10 mg/kg amounted to 50.4%. The “% inhibition” value in assay [1] (dose 20.0 mg/kg p.o., 20 mg/kg) worked out at 43.24%. In addition, the ED50 in assay [2] (setting [8]) was determined as 9.4 mg/kg.
`CN1CC[C@H](c2c(O)cc(O)c3c(=O)cc(-c4ccccc4Cl)oc23)[C@H](O)C1` (single isomer, unassigned) [(-) 2-Chlorophenyl H CH3 HCl.1,5 H2 O, cis-(-)-2-(2-chlorophenyl)-5,7-dihydroxy-8-[4'-(3'-hydroxy-1'-methyl)-piperidinyl]-4H-1-benzopyran-4-one]: the inhibition in vivo at 1.25 mg/kg in assay [1] (setting [3]) worked out at 34%. Also, in assay [1] (setting [4]), the inhibition in vivo at 2.5 mg/kg came out at 48.8%. Further, the inhibition in vivo at 5 mg/kg in assay [1] (setting [5]) was 70%. Besides, the inhibition in vivo at 10 mg/kg in assay [1] (setting [6]) was found to be 98.8%. Besides, the ED50 in assay [2] (setting [8]) was found to be 2.4 mg/kg.
In the case of `Cc1cc(=O)c2c(O)cc(O)c([C@H]3CCN(C)C[C@H]3O)c2o1` (single isomer, unassigned) [(-) CH3 H CH3 HCl, (-)-cis-5,7-Dihydroxy-2-methyl-8-[4'-(3'-hydroxy-1'-methyl)-piperidinyl]-4H-1-benzopyran-4-one hydrochloride], the “% inhibition” value in assay [1] (dose 1.25 mg/kg p.o., 1.25 mg/kg) stood at 40.31%; in assay [1] (dose 2.5 mg/kg p.o., 2.5 mg/kg), 39.11%; in assay [1] (dose 5.0 mg/kg p.o., 5 mg/kg) it was 40.13%; in assay [1] (dose 10.0 mg/kg p.o., 10 mg/kg), 45.17%; in assay [1] (dose 20.0 mg/kg p.o., 20 mg/kg), 64.73%. Besides, the 50% effective dose (ED50) in assay [2] (p.o., hydrochloride) is listed as 9.0 mg/kg.
